The values that follow are results of earlier work, collected in publication PMC5413030, “Radiochemistry on electrodes: Synthesis of an ^18F-labelled and in vivo stable COX-2 inhibitor” (PLoS ONE, 2017).

Structures are written as SMILES.

For data set [1] the following is noted: oxidation of the methyl group.

As for `Cc1ccc(-c2cc(C(F)(F)F)nn2-c2ccc(S(N)(=O)=O)cc2)cc1` [Celecoxib, 4-[5-(4-Methylphenyl)-3-(trifluoromethyl)-1H-pyrazol-1-yl]benzenesulfonamide], the “protein binding in plasma” value is > 95%. Also, in data set [1], the “metabolic behavior of celecoxib” value is reported as “almost completely metabolized”.
